# Experimental data: patent US10610586B2, “Compositions for antigen-specific induction of tolerance” (STALLERGENES, priority 2005, dated 2020)
# How the values were obtained:
# [1] = system: BALB/c mice sensitized with OVA; experiment: Sublingual tolerization in a therapeutic model of type I allergy: airway responsiveness by whole body plethysmography; assay type: in vivo; settings: adjuvant given sublingually together with OVA 500 μg twice a week for 2 months to OVA-sensitized mice; methacholine 50 mg/ml; compared to PBS-treated mice or OVA alone
# Experimental: Sensitization was performed by two intraperitoneal (i.p.) injections in 14 days interval with 10 μg OVA adsorbed to 2 mg Al(OH)3 in a total volume of 100 μl. The sensitization was followed by a 20 min aerosol challenge with 1% w/v OVA on 5 consecutive days with an aerosol delivery system (Buxco Europe; Ltd, UK). Control animals were sham treated with sterile PBS. For tolerance induction in a therapeutic model, sensitized mice were sublingually treated with OVA or OVA plus adjuvant every week, twice a week, during 2 months at a concentration of 500 μg (20 μl). Control mice were sensitized with OVA followed by sham tolerization with PBS. Measurements of airway responsiveness were performed by whole body plethysmography (Buxco Europe; Ltd, UK), 48 h after the last challenge for sensitisation or tolerization. Airflow signals were recorded in response to aerosolized methacholine (50 mg/ml), 1 minute, four times. The higher value of Penh (enhanced pause) was taken into account for the calculation of the Penh index (Penh index=Penh measured/Penh PBS).
# TGF-β = TGF-β production in supernatant of spleen cell cultures after sublingual tolerization; assay type: in vivo; settings: OVA-sensitized mice treated sublingually with OVA plus adjuvant; compared to PBS-treated mice or OVA alone
# Experimental: For tolerance induction in a therapeutic model, sensitized mice were sublingually treated with OVA or OVA plus adjuvant every week, twice a week, during 2 months at a concentration of 500 μg (20 μl). Control mice were sensitized with OVA followed by sham tolerization with PBS. Dosage of TGF-β from supernatants of spleen cell cultures was performed with an ELISA kit (R&D systems). Mice were killed by cervical dislocation. Spleens cells were isolated and plated in triplicate in 96-well flat-bottomed ELISPOT plates (Millipore, Massachussets) at densities of 2×10^5 cells per well. Different conditions were used: medium alone, OVA (100μg/ml) and PMA (phorbol myristyl acetate) (50 ng/ml, Sigma)/ionomycin (500 ng/ml, Sigma) which was used as positive control. Spot forming cells (SFCs) were monitored for IFN-γ, IL-5 and IL10. Elispot kits were from R&D systems Europe.
# human T cells = experiment: Gene expression by human T cells after coculture with adjuvant-treated DC (quantitative PCR); assay type: cell-based; settings: human DC treated with adjuvant 24 h, cultured with allogenic naive CD4+ T cells, mRNA 24 h to 5 days later; only above 2-fold increase considered significant
# Experimental: Dendritic cells DC were treated with candidate adjuvants for 24 h, washed and cultured with purified allogenic naïve CD4+ T cells. mRNAs were extracted 24 h to 5 days later and gene expression was assessed by quantitative PCR with primers specific for the tested genes. Only data above 2-fold increase were considered as significant.
# A human in vitro model, consisting of a coculture of human pretreated DC with allogenic T cells, has been used to select IL-10-inducing adjuvants. Briefly, human DC were treated with adjuvants. After 24 h, the DC were washed and cultured with allogenic naive CD4+ T cells. After 24 h to 5 days, gene expression in human T cells was assessed by quantitative PCR.
substance,measurement,setting,value
Lactobacillus plantarum [L. plantarum],airway responsiveness (Penh in response to methacholine),[1],reduction of airway responsiveness
same,TGF-β production in supernatant of spleen cell cultures,TGF-β,enhanced
same,Gene expression by T cells: IL10,human T cells,induce IL10 gene expression
